Assay type in all cases: biochemical
The target of experiment [1] is T1, 17β-Hydroxysteroid Dehydrogenase Type 2 Enzyme (17β-HSD2) (Homo sapiens, UniProt P37059).
T1 construct: made in house; host or cells: Sf-9 insect cells (baculovirus)
T1 sequence (P37059 1-387): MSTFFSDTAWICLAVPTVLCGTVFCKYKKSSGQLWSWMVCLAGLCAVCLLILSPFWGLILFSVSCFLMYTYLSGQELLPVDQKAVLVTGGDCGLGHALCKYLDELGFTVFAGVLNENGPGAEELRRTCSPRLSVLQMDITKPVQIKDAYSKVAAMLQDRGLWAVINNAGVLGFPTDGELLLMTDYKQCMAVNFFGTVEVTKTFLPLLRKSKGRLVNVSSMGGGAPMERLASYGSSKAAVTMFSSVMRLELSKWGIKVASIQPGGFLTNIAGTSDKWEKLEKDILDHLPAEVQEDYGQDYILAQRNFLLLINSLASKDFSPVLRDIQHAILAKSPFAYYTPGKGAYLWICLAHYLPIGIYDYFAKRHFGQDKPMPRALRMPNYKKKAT
The experiment can be described thus: Inhibition of the 17β-hydroxysteroid dehydrogenase type 2 enzyme, 3H-testosterone conversion. The following applies: inhibitor at 10 μM. A digest of the protocol:
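Single-point screen at 10 μM inhibitor, 1% DMSO: Sf-9-expressed human enzyme (105 nM), NAD 1 mM, ³H-labelled testosterone 56.25 nM, pH 8.5 phosphate/EDTA buffer, 30 min, room temperature. After TCA quench, substrate and product radioactivity quantified by UPLC with scintillation detection; inhibition percent from conversion.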

Experiment [2] concerns the target T2, Recombinant human AKR1C3 (17β-HSD5) protein (Homo sapiens, UniProt P42330).
T2 construct: made in house; host or cells: E. coli
T2 sequence (P42330 1-323): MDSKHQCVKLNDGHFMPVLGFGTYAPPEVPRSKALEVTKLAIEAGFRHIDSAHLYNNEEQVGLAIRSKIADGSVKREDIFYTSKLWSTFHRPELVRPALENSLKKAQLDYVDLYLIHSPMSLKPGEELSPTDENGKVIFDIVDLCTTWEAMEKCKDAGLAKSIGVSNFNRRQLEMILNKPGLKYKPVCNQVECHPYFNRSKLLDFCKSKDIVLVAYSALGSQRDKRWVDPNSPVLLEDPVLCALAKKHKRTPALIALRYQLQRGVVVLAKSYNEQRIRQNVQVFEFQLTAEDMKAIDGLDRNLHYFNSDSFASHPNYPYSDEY
As to the kind of experiment: Inhibition of AKR1C3 (17β-hydroxysteroid dehydrogenase type 5) enzyme, fluorescence assay. The following applies: inhibitor at 500 nM. The procedure, abridged:
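Percent inhibition at 500 nM compound, derived from substrate conversion; product alcohol measured by fluorescence (ex 420, em 510 nm) against a 1 μM–10 nM standard curve. Reaction: 27 nM recombinant AKR1C3, 1 μM ketone substrate, 1 mM NADPH, phosphate/EDTA buffer pH 7.4, 1% DMSO, RT for 60–120 min.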

The target in experiment [3] is T3, Recombinant human aldo-keto reductase family 1 member C2 (AKR1C2) protein (Homo sapiens, UniProt P52895).
T3 construct: made in house; host or cells: Sf-9 insect cells (baculovirus)
T3 sequence (P52895 1-323): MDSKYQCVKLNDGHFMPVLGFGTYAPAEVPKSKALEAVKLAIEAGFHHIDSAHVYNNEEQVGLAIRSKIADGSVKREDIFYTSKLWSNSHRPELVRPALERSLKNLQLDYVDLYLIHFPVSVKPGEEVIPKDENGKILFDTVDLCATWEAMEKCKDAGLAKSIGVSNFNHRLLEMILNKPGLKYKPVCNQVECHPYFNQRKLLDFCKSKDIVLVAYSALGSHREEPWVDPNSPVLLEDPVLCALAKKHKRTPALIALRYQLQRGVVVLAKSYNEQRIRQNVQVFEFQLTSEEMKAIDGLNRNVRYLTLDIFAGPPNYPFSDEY
As to the kind of experiment: Inhibition of the aldo-keto reductase family 1 member C2, 3H-dihydrotestosterone conversion. The following applies: inhibitor at 10 μM. The procedure, abridged: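 Single-point screen at 10 μM inhibitor, 1% DMSO: [3H]DHT (6.25 nM) reduction to 3α-diol by baculovirus-made AKR1C2 (13.6 nM), pH 7.4 phosphate buffer, 1 mM NADPH, 37 °C for 45 min. Radio-UPLC quantified product versus substrate to give percent inhibition.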

The source of these data is patent US12637471B2, “Heterocyclic compounds, compositions, methods of preparation and uses thereof” (Organon R&D Finland Ltd, priority 2021, dated 2026).

Structures are written as SMILES.

Broadly, the inhibition is the drop in the measured response relative to a control, in per cent. Turning to `N#CC(=C1CCN(C(=O)N2CCc3sccc3C2)CC1)c1ccc(F)cc1F` [Compound 112, 2-(2,4-difluorophenyl)-2-(1-(4,5,6,7-tetrahydrothieno[3,2-c]pyridine-5-carbonyl)piperidin-4-ylidene)acetonitrile], the results for the inhibition at 10 µM in experiment [1] and in experiment [3] were 17% and 30%, respectively. For the same compound, in experiment [2], the inhibition at 0.5 µM was found to be 96%.

On to `N#CC(=C1CCN(C(=O)N2CCc3[nH]ncc3C2)CC1)c1ccc(Cl)cc1` [Compound 113, 2-(4-chlorophenyl)-2-(1-(4,5,6,7-tetrahydro-1H-pyrazolo[4,3-c]pyridine-5-carbonyl)piperidin-4-ylidene)acetonitrile], for which the inhibition at 10 µM in experiment [1] was found to be 16%; in experiment [3] it was 19%. For the same compound, in experiment [2], the inhibition at 0.5 µM was 104%.

With `N#CC(=C1CCN(C(=O)N2CCc3sccc3C2)CC1)c1cccc2[nH]ncc12` [Compound 114, 2-(1H-indazol-4-yl)-2-(1-(4,5,6,7-tetrahydrothieno[3,2-c]pyridine-5-carbonyl)piperidin-4-ylidene)acetonitrile], the inhibition at 10 µM in experiment [1] was 34%; in experiment [3], 11%. In experiment [2], the inhibition at 0.5 µM was 97%.

Turning to `N#CC(=C1CCN(C(=O)N2CCC(O)CC2)CC1)c1ccc(OC(F)(F)F)cc1` [Compound 115, 2-(1-(4-hydroxypiperidine-1-carbonyl)piperidin-4-ylidene)-2-(4-(trifluoromethoxy)phenyl)acetonitrile], the values for the inhibition at 10 µM in experiment [1] and in experiment [3] were -1% and 0%, respectively. Besides, the inhibition at 0.5 µM in experiment [2] was found to be 96%.

As for `N#CC(=C1CCN(C(=O)N2CCc3[nH]ncc3C2)CC1)c1cc(F)cc(F)c1` [Compound 116, 2-(3,5-difluorophenyl)-2-(1-(4,5,6,7-tetrahydro-1H-pyrazolo[4,3-c]pyridine-5-carbonyl)piperidin-4-ylidene)acetonitrile], the inhibition at 10 µM in experiment [1] is 12%; in experiment [3] it was 26%. For the same compound, the inhibition at 0.5 µM in experiment [2] came to 98%.

With `N#CC(=C1CCN(C(=O)N2CCc3sccc3C2)CC1)c1ccc(OC(F)(F)F)cc1` [Compound 117, 2-(1-(4,5,6,7-tetrahydrothieno[3,2-c]pyridine-5-carbonyl)piperidin-4-ylidene)-2-(4-(trifluoromethoxy)phenyl)acetonitrile], the inhibition at 10 µM in experiment [1] was determined as 22%; in experiment [3] it was 7%. Besides, in experiment [2], the inhibition at 0.5 µM is 94%.

Turning to `Cn1ncc2cccc(C(C#N)=C3CCN(C(=O)N4CCC(CO)CC4)CC3)c21` [Compound 118, 2-(1-(4-(hydroxymethyl)piperidine-1-carbonyl)piperidin-4-ylidene)-2-(1-methyl-1H-indazol-7-yl)acetonitrile], the inhibition at 10 µM in experiment [1] stood at 30%; in experiment [3], 14%. Also, in experiment [2], the inhibition at 0.5 µM stood at 96%.

In the case of `Cn1ncc2cccc(C(C#N)=C3CCN(C(=O)N4CCc5[nH]ncc5C4)CC3)c21` [Compound 119, 2-(1-methyl-1H-indazol-7-yl)-2-(1-(4,5,6,7-tetrahydro-1H-pyrazolo[4,3-c]pyridine-5-carbonyl)piperidin-4-ylidene)acetonitrile], the values for the inhibition at 10 µM in experiment [1] and in experiment [3] were 15% and 6%, respectively. For the same compound, the inhibition at 0.5 µM in experiment [2] came to 99%.

As to `N#CC(=C1CCN(C(=O)N2CCc3[nH]ncc3C2)CC1)c1ccc(Cl)s1` [Compound 120, 2-(5-chlorothiophen-2-yl)-2-(1-(4,5,6,7-tetrahydro-1H-pyrazolo[4,3-c]pyridine-5-carbonyl)piperidin-4-ylidene)acetonitrile], the values for the inhibition at 10 µM in experiment [1] and in experiment [3] were 20% and 43%, respectively. The inhibition at 0.5 µM in experiment [2] is 99%.

Take `N#CC(=C1CCN(C(=O)N2CCn3cncc3C2)CC1)c1ccc(Cl)s1` [Compound 121, 2-(5-chlorothiophen-2-yl)-2-(1-(5,6,7,8-tetrahydroimidazo[1,5-a]pyrazine-7-carbonyl)piperidin-4-ylidene)acetonitrile]: the inhibition at 10 µM in experiment [1] was -7%; in experiment [3], 32%. Besides, in experiment [2], the inhibition at 0.5 µM came out at 99%.

Turning to `N#CC(=C1CCN(C(=O)N2CCc3[nH]ncc3C2)CC1)c1ccc(F)cc1F` [Compound 122, 2-(2,4-difluorophenyl)-2-(1-(4,5,6,7-tetrahydro-1H-pyrazolo[4,3-c]pyridine-5-carbonyl)piperidin-4-ylidene)acetonitrile], the inhibition at 10 µM in experiment [1] stood at 24%; in experiment [3] it was 42%. In addition, in experiment [2], the inhibition at 0.5 µM was 99%.

For `N#CC(=C1CCN(C(=O)N2CCn3cncc3C2)CC1)c1ccc(F)cc1F` [Compound 123, 2-(2,4-difluorophenyl)-2-(1-(5,6,7,8-tetrahydroimidazo[1,5-a]pyrazine-7-carbonyl)piperidin-4-ylidene)acetonitrile], the inhibition at 10 µM in experiment [1] worked out at 2%; in experiment [3] it was 33%. For the same compound, the inhibition at 0.5 µM in experiment [2] turned out to be 99%.

For the compound `CC(O)C1CCN(C(=O)N2CCC(=C(C#N)c3ccc(OC(F)(F)F)cc3)CC2)CC1` (stereo not drawn) [Compound 124, 2-(1-(4-(1-hydroxyethyl)piperidine-1-carbonyl)piperidin-4-ylidene)-2-(4-(trifluoromethoxy)phenyl)acetonitrile], the inhibition at 10 µM in experiment [1] is 9%; in experiment [3], 4%. Moreover, the inhibition at 0.5 µM in experiment [2] came to 91%.

For the compound `CCOC1CCN(C(=O)N2CCC(=C(C#N)c3ccc(Cl)s3)CC2)CC1` [Compound 125, 2-(5-chlorothiophen-2-yl)-2-(1-(4-ethoxypiperidine-1-carbonyl)piperidin-4-ylidene)acetonitrile], the inhibition at 10 µM in experiment [1] was found to be 17%; in experiment [3], 18%. Further, the inhibition at 0.5 µM in experiment [2] is 97%.

For `N#CC(=C1CCN(C(=O)N2CCC(S(N)(=O)=O)CC2)CC1)c1ccc(Cl)cc1` [Compound 126, 1-(4-((4-chlorophenyl)(cyano)methylene)piperidine-1-carbonyl)piperidine-4-sulfonamide], the inhibition at 10 µM was found to be 2% in experiment [1] and 10% in experiment [3]. Moreover, the inhibition at 0.5 µM in experiment [2] amounted to 97%.

Turning to `N#CC(=C1CCN(C(=O)N2CCC(O)CC2)CC1)c1ccc(C(F)(F)F)cc1` [Compound 127, 2-(1-(4-hydroxypiperidine-1-carbonyl)piperidin-4-ylidene)-2-(4-(trifluoromethyl)phenyl)acetonitrile], the inhibition at 10 µM in experiment [1] was 5%; in experiment [3] it was -6%. The inhibition at 0.5 µM in experiment [2] was determined as 96%.

`CCOC1CCN(C(=O)N2CCC(=C(C#N)c3ccc(C(F)(F)F)cc3)CC2)CC1` [Compound 128, 2-(1-(4-ethoxypiperidine-1-carbonyl)piperidin-4-ylidene)-2-(4-(trifluoromethyl)phenyl) acetonitrile]: the inhibition at 10 µM in experiment [1] was 17%; in experiment [3], 2%. In experiment [2], the inhibition at 0.5 µM worked out at 93%.

`CCOC1CCN(C(=O)N2CCC(=C(C#N)c3cccc(Cl)c3)CC2)CC1` [Compound 129, 2-(3-chlorophenyl)-2-(1-(4-ethoxypiperidine-1-carbonyl)piperidin-4-ylidene)acetonitrile]: the inhibition at 10 µM in experiment [1] was determined as 5%; in experiment [3], 11%. Besides, the inhibition at 0.5 µM in experiment [2] was 98%.

Take `CC(=O)N1CCN(C(=O)N2CCC(=C(C#N)c3ccc(Cl)cc3)CC2)CC1` [Compound 130, 2-(1-(4-acetylpiperazine-1-carbonyl)piperidin-4-ylidene)-2-(4-chlorophenyl)acetonitrile]: the inhibition at 10 µM in experiment [1] was determined as 12%; in experiment [3], 0%. The inhibition at 0.5 µM in experiment [2] came to 97%.
